Active and inactive are the calls of the source.
Legend:
[1] = Toxicity in mouse xenografted with human RS4-11 cells assessed as signs o toxicity at 50 mg/kg, administered every other day for 3 weeks; type: organism-based; conditions: in vivo, 504 h
[2] = target: T1, Protein cereblon/E3 ubiquitin-protein ligase Mdm2 (Homo sapiens) (UniProt Q00987+Q96SW2); assay: PROTAC activity at CRBN/MDM2 in human MV4-11 cells assessed as upregulation of p53 mRNA expression at 0.1 to 0.3 uM incubated for 6 hrs by qRT-PCR analysis; type: cell-based; conditions: dose 0.1-0.3 µM
RS4-11 [3] = assay: Antitumor activity against human RS4-11 cells xenografted in mouse assessed as reduction in tumor growth at 25 mg/kg, iv administered for a week; type: functional, organism-based; conditions: time 1.0 weeks
RS4-11 [4] = assay: Potency index, ratio of MI-1061 IC50 to test compound IC50 for inhibition of cell growth in human RS4-11 cells incubated for 4 days by lactate dehydrogenase based WST-8 assay; type: functional; conditions: time 4 day
[5] = Toxicity in mouse xenografted with human RS4-11 cells assessed as weight loss at 50 mg/kg, administered every other day for 3 weeks; type: organism-based; conditions: in vivo, 504 h
SIG-M5 [6] = assay: cells; conditions: Homo sapiens, SIG-M5, 96 h
RS4-11 [7] = assay: Induction of apoptosis in human RS4-11 cells incubated for 24 hrs by Annexin-V/PI staining based flow cytometric analysis; type: functional, cell-based
[8] = Toxicity in mouse xenografted with human RS4-11 cells assessed as weight loss at 10 to 25 mg/kg, iv administered three times a week; type: organism-based; conditions: in vivo, 168 h, dose 10-25 mg/kg, time 1 weeks
MV4-11 [9] = assay: Potency index, ratio of MI-1061 IC50 to test compound IC50 for inhibition of cell growth in human MV4-11 cells incubated for 4 days by lactate dehydrogenase based WST-8 assay; type: functional; conditions: time 4 day
MOLM-14 [10] = assay: cells; conditions: Homo sapiens, MOLM-14, 96 h
OCI-AML-5 [11] = assay: cells; conditions: Homo sapiens, OCI-AML-5, 96 h
[12] = Toxicity in mouse xenografted with human RS4-11 cells assessed as weight loss at 25 mg/kg, iv administered for one week; type: organism-based; conditions: in vivo, 168 h, time 1 weeks
MOLM-14 [13] = assay: Potency index, ratio of MI-1061 IC50 to test compound IC50 for inhibition of cell growth in human MOLM-14 cells harbouring wild type p53 incubated for 4 days by lactate dehydrogenase based WST-8 assay; type: functional; conditions: time 4 day
RS4-11 [14] = assay: cells; conditions: Homo sapiens, RS4-11, 96 h
[15] = Toxicity in mouse xenografted with human RS4-11 cells assessed as signs of toxicity at 50 mg/kg, administered once a week for 3 weeks; type: organism-based; conditions: in vivo, 504 h
KG-1 = assay: cells; conditions: Homo sapiens, KG-1, 96 h
SIG-M5 [16] = assay: Potency index, ratio of MI-1061 IC50 to test compound IC50 for inhibition of cell growth in human SIG-M5 cells harbouring wild type p53 incubated for 4 days by lactate dehydrogenase based WST-8 assay; type: functional; conditions: time 4 day
[17] = target: T1, Protein cereblon/E3 ubiquitin-protein ligase Mdm2 (Homo sapiens); assay: PROTAC activity at CRBN/MDM2 in human MV4-11 cells assessed as upregulation of MDM2 mRNA expression at 0.1 to 0.3 uM incubated for 6 hrs by qRT-PCR analysis; type: cell-based; conditions: dose 0.1-0.3 µM
RS4-11 [18] = assay: Antitumor activity against human […] cells xenografted in mouse assessed as tumor regression at 25 mg/kg, administered daily 5 days a week for 2 weeks; type: functional, organism-based
MONO-MAC-6 = assay: cells; conditions: Homo sapiens, MONO-MAC-6, 96 h
OCI-AML-5 [19] = assay: Potency index, ratio of MI-1061 IC50 to test compound IC50 for inhibition of cell growth in human OCI-AML5 cells harbouring wild type p53 incubated for 4 days by lactate dehydrogenase based WST-8 assay; type: functional; conditions: time 4 day
[20] = target: T1, Protein cereblon/E3 ubiquitin-protein ligase Mdm2 (Homo sapiens); assay: PROTAC activity at CRBN/MDM2 in human RS4-11 cells harbouring wildtype p53 assessed as upregulation of TP53 mRNA expression at 0.03 to 0.1 uM incubated for 6 hrs by qRT-PCR analysis; type: cell-based; conditions: dose 0.03-0.1 µM
[21] = Toxicity in mouse xenografted with human RS4-11 cells assessed as weight loss at 50 mg/kg, administered once a week for 3 weeks; type: organism-based; conditions: in vivo, 504 h
[22] = Toxicity in mouse xenografted with human RS4-11 cells assessed as signs of toxicity at 25 mg/kg, iv administered for one week; type: organism-based; conditions: in vivo, 168 h, time 1 weeks
MOLM-13 [23] = assay: cells; conditions: Homo sapiens, MOLM-13, 96 h
MOLM-13 [24] = assay: Potency index, ratio of MI-1061 IC50 to test compound IC50 for inhibition of cell growth in human MOLM-13 cells harbouring wild type p53 incubated for 4 days by lactate dehydrogenase based WST-8 assay; type: functional; conditions: time 4 day
[25] = target: T1, Protein cereblon/E3 ubiquitin-protein ligase Mdm2 (Homo sapiens); assay: PROTAC activity at CRBN/MDM2 in human MV4-11 cells assessed as upregulation of p21 mRNA expression at 0.1 to 0.3 uM incubated for 6 hrs by qRT-PCR analysis; type: cell-based; conditions: dose 0.1-0.3 µM
[26] = Toxicity in mouse xenografted with human RS4-11 cells assessed as signs of toxicity at 10 to 25 mg/kg, iv administered three times a week; type: organism-based; conditions: in vivo, 168 h, dose 10-25 mg/kg, time 1 weeks
RS4-11 [27] = assay: Induction of apoptosis in human RS4-11 cells at 0.001 to 1 uM incubated for 24 hrs by Annexin-V/PI staining based flow cytometric analysis relative to MI-1061; type: functional; conditions: dose 0.001-1 µM
RS4-11 [28] = assay: Antitumor activity against human RS4-11 cells xenografted in mouse assessed as reduction in tumor growth at 25 mg/kg, iv administered three times a week relative to control; type: functional; parameters: scale not given: the % may be the effect or the level left; conditions: time 1 weeks
ML-2 [29] = assay: cells; conditions: Homo sapiens, ML-2, 96 h
RS4-11 [30] = assay: Antitumor activity against human RS4-11 cells xenografted in mouse assessed as inhibition of tumor growth at 50 mg/kg, administered once a week for 3 weeks; type: functional, organism-based
RS4-11 [31] = assay: Antitumor activity against human RS4-11 cells xenografted in mouse assessed as reduction in tumor growth at 10 mg/kg, iv administered three times a week; type: functional, organism-based; conditions: time 1.0 weeks
ML-2 [32] = assay: Potency index, ratio of MI-1061 IC50 to test compound IC50 for inhibition of cell growth in human ML-2 cells harbouring wild type p53 incubated for 4 days by lactate dehydrogenase based WST-8 assay; type: functional; conditions: time 4 day
[33] = target: T1, Protein cereblon/E3 ubiquitin-protein ligase Mdm2 (Homo sapiens); assay: PROTAC activity at CRBN/MDM2 in human MV4-11 cells assessed as upregulation of TP53 mRNA expression at 0.1 to 0.3 uM incubated for 6 hrs by qRT-PCR analysis; type: cell-based; conditions: dose 0.1-0.3 µM
RS4-11 [34] = assay: Antitumor activity against human RS4-11 cells xenografted in mouse assessed as tumor regression at 50 mg/kg, administered every other day for 3 weeks; type: functional, organism-based
MV4-11 [35] = assay: Inhibition of cell growth in human MV4-11 cells incubated for 4 days in the presence of lenalidomide by Lactate dehydrogenase based WST-8 assay; type: functional; conditions: time 4.0 day
[36] = target: T1, Protein cereblon/E3 ubiquitin-protein ligase Mdm2 (Homo sapiens); assay: PROTAC activity at CRBN/MDM2 in human MV4-11 cells assessed as upregulation of PUMA mRNA expression at 0.1 to 0.3 uM incubated for 6 hrs by qRT-PCR analysis; type: cell-based; conditions: dose 0.1-0.3 µM
RS4-11 [37] = assay: Inhibition of cell growth in human RS4-11 cells incubated for 4 days in the presence of lenalidomide by Lactate dehydrogenase based WST-8 assay; type: functional; conditions: time 4.0 day

T1 sequence (Q00987 whole entry, looked up): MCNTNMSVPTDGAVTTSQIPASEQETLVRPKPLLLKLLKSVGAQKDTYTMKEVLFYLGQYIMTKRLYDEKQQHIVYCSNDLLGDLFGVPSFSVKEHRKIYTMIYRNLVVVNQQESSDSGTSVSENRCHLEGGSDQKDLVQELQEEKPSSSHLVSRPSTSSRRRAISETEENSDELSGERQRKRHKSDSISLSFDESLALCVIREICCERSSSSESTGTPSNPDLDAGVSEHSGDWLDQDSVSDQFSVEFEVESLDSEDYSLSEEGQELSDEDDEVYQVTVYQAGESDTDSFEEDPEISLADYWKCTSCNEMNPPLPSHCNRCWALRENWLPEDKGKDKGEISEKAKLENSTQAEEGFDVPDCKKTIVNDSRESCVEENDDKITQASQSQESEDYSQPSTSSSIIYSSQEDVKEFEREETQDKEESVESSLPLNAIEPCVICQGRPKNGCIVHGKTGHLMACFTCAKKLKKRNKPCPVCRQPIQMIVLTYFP
T1 sequence (Q96SW2 whole entry, looked up): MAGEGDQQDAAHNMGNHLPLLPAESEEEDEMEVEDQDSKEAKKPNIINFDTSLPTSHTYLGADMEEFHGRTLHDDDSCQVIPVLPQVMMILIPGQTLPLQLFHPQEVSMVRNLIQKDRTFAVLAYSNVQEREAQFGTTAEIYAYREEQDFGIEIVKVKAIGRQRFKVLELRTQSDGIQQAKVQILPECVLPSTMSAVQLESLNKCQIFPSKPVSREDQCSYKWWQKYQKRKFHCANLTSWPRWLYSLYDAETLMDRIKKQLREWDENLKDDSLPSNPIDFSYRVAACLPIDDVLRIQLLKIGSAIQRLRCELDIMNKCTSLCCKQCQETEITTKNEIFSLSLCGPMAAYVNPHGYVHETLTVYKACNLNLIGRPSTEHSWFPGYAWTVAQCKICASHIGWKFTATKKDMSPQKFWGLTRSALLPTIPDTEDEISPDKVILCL

O=C1CCC(N2Cc3c(C#CCCCNC(=O)c4ccc(NC(=O)[C@@H]5NC6(CCCCC6)[C@@]6(C(=O)Nc7cc(Cl)ccc76)[C@H]5c5cccc(Cl)c5F)cc4)cccc3C2=O)C(=O)N1 (some centres undefined)
4.4 nM: IC50 (ML-2 [29])
50%: Activity (RS4-11 [28])
33.1 nM: IC50 (OCI-AML-5 [11])
7.3 nM: IC50 (MOLM-13 [23])
Non-Toxic: Activity [1] | Activity [5] | Activity [8] | Activity [12] | Activity [15] | Activity [21] | Activity [22] | Activity [26]
inactive: Activity [20] | Activity [33] | inhibition (RS4-11 [37])
1.5 nM: IC50 (RS4-11 [14])
10.5 nM: IC50 (MOLM-14 [10])
active: Activity [2] | Activity (RS4-11 [3]) | Activity (RS4-11 [7]) Dose-Dependent Effect | Activity [17] | Activity (RS4-11 [18]) | Activity [25] | Activity (RS4-11 [30]) | Activity (RS4-11 [31]) | Activity (RS4-11 [34]) | inhibition (MV4-11 [35]) | Activity [36]
19.8 nM: IC50 (SIG-M5 [6])
> 10000 nM: IC50 (KG-1) | IC50 (MONO-MAC-6)
5.3: Ratio IC50 (SIG-M5 [16])
>10: Ratio IC50 (RS4-11 [4]) | Ratio IC50 (MV4-11 [9]) | Ratio IC50 (MOLM-14 [13]) | Ratio IC50 (OCI-AML-5 [19]) | Ratio IC50 (MOLM-13 [24]) | fold change (FC) (RS4-11 [27]) | Ratio IC50 (ML-2 [32])
